Results reported in patent publication US10508088B2, “Methods using HDAC11 inhibitors” (FORMA Therapeutics, Inc., priority 2016, dated 2019).

Tested on: HEL 92.1.7 cells
Assay: Cell proliferation assay (CCK8)
Type: cell-based
Settings: HEL 92.1.7, 48 h
Description: (§1) This example describes inhibition of in vitro cell proliferation with exemplary HDAC11 inhibitors. The effects of selective HDAC11 inhibitors on cell proliferation were measured in cell lines containing the MPN-associated mutations MPL W515L (Ba/F3 MPL W515L) and JAK2 V617F (Ba/F3 JAK2 V617F, HEL 92.1.7, SET-2). HEL 92.1.7 and SET-2 cells were purchased from the ATCC and DSMZ, respectively. Ba/F3 cells overexpressing either MPLW515L or JAK2V617F, which were cytokine independent, were generated by transforming Ba/F3 cells with retroviruses overexpressing either MPL W515L or JAK2V617F. For survival assays, cells were seeded in 96-well plates at the density of 0.1 million/ml with addition of indicated compounds and incubated at 37° C. for 48 h. CCK8 solution (Dojindo, Rockville, Md.) was added and absorbance at 450 nm was measured after 3 hours of incubation. Readings were normalized to dimethylsulfoxide (DMSO)-treated wells.

Structure (SMILES) | growth of the HEL 92.1.7 cell line
N#CC[C@H](C1CCCC1)n1cc(-c2ncnc3[nH]ccc23)cn1 [ruxolitinib, reference compound] | inhibited

Tested on: SET-2 cells
Assay: Cell proliferation assay (CCK8)
Type: cell-based
Settings: SET-2 (FIG. 4 legend)
Description: as §1

Structure (SMILES) | growth of SET-2 cell line
N#CC[C@H](C1CCCC1)n1cc(-c2ncnc3[nH]ccc23)cn1 [ruxolitinib, reference compound] | inhibited

Biological target: Full length human recombinant HDAC11 (Homo sapiens (Human), UniProt Q96DB2)
Assay: Enzymatic HDAC11 assay, electrophoretic mobility shift
Type: biochemical
Settings: substrate FAM-RHKK(tri-fluor-Ac)-NH2, read-out: HDAC11 IC50 Range
Summary of the method: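 Baculovirus-expressed enzyme (10 nM) with 2 μM FAM-RHKK(tri-fluor-Ac)-NH2 in 100 mM HEPES pH 7.5, 25 mM KCl, 0.1% BSA, 0.01% Triton X-100, 1% DMSO at 25 °C. Substrate and product separated by microfluidic electrophoresis; inhibition from product/(substrate+product) ratio. IC50 by 4-parameter fit over 12 concentrations.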

Full length human recombinant HDAC11, sequence (Q96DB2 whole entry): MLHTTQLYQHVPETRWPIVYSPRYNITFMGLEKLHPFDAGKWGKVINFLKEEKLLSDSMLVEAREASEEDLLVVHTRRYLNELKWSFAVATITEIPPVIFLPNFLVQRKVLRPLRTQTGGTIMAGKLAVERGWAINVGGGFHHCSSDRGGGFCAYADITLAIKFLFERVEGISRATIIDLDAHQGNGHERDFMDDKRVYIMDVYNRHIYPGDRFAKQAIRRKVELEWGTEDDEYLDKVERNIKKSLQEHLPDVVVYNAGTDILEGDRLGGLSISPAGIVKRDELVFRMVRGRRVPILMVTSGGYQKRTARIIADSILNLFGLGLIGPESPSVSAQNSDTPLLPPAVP

Structure (SMILES) | IC50
O=C(NO)c1cccc2c1CC1(CCN(Cc3ccccc3C(F)(F)F)C1=O)C2 (centres unmarked) [II-29, N-hydroxy-2′-oxo-1′-(2-(trifluoromethyl)benzyl)-1,3-dihydrospiro[indene-2,3′-pyrrolidine]-4-carboxamide] | 500 to 1000 nM
O=C(NO)c1cccc2c1CC1(CCN(Cc3cccc(Br)c3)C1=O)C2 (centres unmarked) [II-33, 1′-(3-bromobenzyl)-N-hydroxy-2′-oxo-1,3-dihydrospiro[indene-2,3′-pyrrolidine]-4-carboxamide] | < 500 nM
Cc1ccccc1CN1CCC2(Cc3cccc(C(=O)NO)c3C2)C1=O (centres unmarked) [II-23, N-hydroxy-1′-(2-methylbenzyl)-2′-oxo-1,3-dihydrospiro[indene-2,3′-pyrrolidine]-4-carboxamide] | > 1000 nM
O=C(NO)c1cccc2c1CC1(CCN(Cc3ccc(C(F)(F)F)c(F)c3)C1=O)C2 (centres unmarked) [II-5, 1′-(3-fluoro-4-(trifluoromethyl)benzyl)-N-hydroxy-2′-oxo-1,3-dihydrospiro[indene-2,3′-pyrrolidine]-4-carboxamide] | < 500 nM
O=C(NO)c1cccc2c1CC1(CCN(c3cccc(C(F)(F)F)c3)C1=O)C2 (centres unmarked) [II-12, N-hydroxy-2′-oxo-1′-(3-(trifluoromethyl)phenyl)-1,3-dihydrospiro[indene-2,3′-pyrrolidine]-4-carboxamide] | 500 to 1000 nM
O=C(NO)c1cccc2c1CC1(CCN(CC3CCC3)C1=O)C2 (centres unmarked) [II-10, 1′-(cyclobutylmethyl)-N-hydroxy-2′-oxo-1,3-dihydrospiro[indene-2,3′-pyrrolidine]-4-carboxamide] | > 1000 nM
O=C(NO)c1cccc2c1CC1(CCN(Cc3ccccc3)C1=O)C2 (centres unmarked) [II-14, 1′-benzyl-N-hydroxy-2′-oxo-1,3-dihydrospiro[indene-2,3′-pyrrolidine]-4-carboxamide] | > 1000 nM
O=C(NO)c1cccc2c1CC1(CCN(Cc3ccc(F)cc3F)C1=O)C2 (centres unmarked) [II-35, 1′-(2,4-difluorobenzyl)-N-hydroxy-2′-oxo-1,3-dihydrospiro[indene-2,3′-pyrrolidine]-4-carboxamide] | > 1000 nM

Further lines, results first:

IC50 | Structure (SMILES)
500 to 1000 nM | O=C(NO)c1cccc2c1CC1(CCN(Cc3cc(Cl)ccc3Cl)C1=O)C2 (centres unmarked) [II-45, 1′-(2,5-dichlorobenzyl)-N-hydroxy-2′-oxo-1,3-dihydrospiro[indene-2,3′-pyrrolidine]-4-carboxamide]
> 1000 nM | O=C(NO)c1cccc2c1CC1(CCN(C(=O)c3ccc(Cl)cc3)CC1)C2 [II-61, 1′-(4-chlorobenzoyl)-N-hydroxy-1,3-dihydrospiro[indene-2,4′-piperidine]-4-carboxamide]
500 to 1000 nM | O=C(NO)c1cccc2c1CCC1(CCN(c3cccc(C(F)(F)F)c3)C1=O)C2 (centres unmarked) [II-89, N-hydroxy-2′-oxo-1′-(3-(trifluoromethyl)phenyl)-3,4-dihydro-1H-spiro[naphthalene-2,3′-pyrrolidine]-5-carboxamide]
> 1000 nM | Cc1ccc(N2CCC3(CCc4cccc(C(=O)NO)c4O3)CC2)cc1F [II-83, 1′-(3-fluoro-4-methylphenyl)-N-hydroxyspiro[chromane-2,4′-piperidine]-8-carboxamide]
> 1000 nM | O=C(NO)c1cccc2c1OC1(CC2)CCN(C2CCCCC2)CC1 [II-81, 1′-cyclohexyl-N-hydroxyspiro[chromane-2,4′-piperidine]-8-carboxamide]
< 500 nM | O=C(NO)c1cccc2c1CCC1(CCN(c3ccc(C(F)(F)F)cc3)C1=O)C2 (centres unmarked) [II-88, N-hydroxy-2′-oxo-1′-(4-(trifluoromethyl)phenyl)-3,4-dihydro-1H-spiro[naphthalene-2,3′-pyrrolidine]-5-carboxamide]
< 500 nM | O=C(NO)c1cccc2c1CC1(CC2)CCN(Cc2ccc(C(F)(F)F)c(F)c2)C1=O (centres unmarked) [II-68, 1′-(3-fluoro-4-(trifluoromethyl)benzyl)-N-hydroxy-2′-oxo-3,4-dihydro-1H-spiro[naphthalene-2,3′-pyrrolidine]-8-carboxamide]
< 500 nM | O=C(NO)c1cccc2c1CC1(CCN(Cc3ccc(OCc4ccccc4)cc3)C1=O)C2 (centres unmarked) [II-41, 1′-(4-(benzyloxy)benzyl)-N-hydroxy-2′-oxo-1,3-dihydrospiro[indene-2,3′-pyrrolidine]-4-carboxamide]
> 1000 nM | O=C(NO)c1cccc2c1CC1(CCN(Cc3ccccc3)CC1)C2O (centres unmarked) [II-66, 1′-benzyl-N,1-dihydroxy-1,3-dihydrospiro[indene-2,4′-piperidine]-4-carboxamide]
< 500 nM | O=C(NO)c1cccc2c1CC1(CC2)CCN(Cc2ccc(Cl)c(C(F)(F)F)c2)C1=O (centres unmarked) [II-67, 1′-(4-chloro-3-(trifluoromethyl)benzyl)-N-hydroxy-2′-oxo-3,4-dihydro-1H-spiro[naphthalene-2,3′-pyrrolidine]-8-carboxamide]
